This data set is described as follows: Appearance of formulation (state at 25° C.). The data set is classed as physicochemical. The conditions noted are these: Tables 1C-1 to 1D; compounding molar ratio (Component (A):Component (B)) 1:1. The method, then: Formulations 1 to 427 shown in Tables 1A to 1D were prepared by the above-described method using the components (A) and (B) at the compounding molar ratios shown in the tables, and their states at 25° C. were observed.

Data on 75 compounds can be found in US20250186321A1, “FORMULATION USING AMINO ACID AND CARBOXYLIC ACID, ORGANIC SALT, AND COMPOSITION COMPRISING SAME AND USE THEREOF” (MIYOSHI OIL & FAT CO., LTD., priority 2021, published 2025).

Regarding `N[C@@H](CS)C(=O)O.O=C(O)/C=C/C(=O)O` [Formulation 316], the “state at 25° C.” value is listed as “Solid”.
Then `N[C@@H](CS)C(=O)O.O=C(O)C[C@H](O)C(=O)O` [Formulation 317], with “Solid”; and `N[C@@H](CS)C(=O)O.O=C(O)CC(O)(CC(=O)O)C(=O)O` [Formulation 318], with “Solid”; and `N[C@@H](CS)C(=O)O.O=C(O)C(O)C(O)C(=O)O` (stereo not drawn) [Formulation 319], with “Solic”.
With `N[C@@H](CS)C(=O)O.O=C(O)c1ccccc1` [Formulation 320], the “state at 25° C.” value was “Solid”.
Then `N[C@@H](CS)C(=O)O.O=C1O[C@H]([C@@H](O)CO)C(O)=C1O` [Formulation 321], with “Solid”; and `N[C@@H](CS)C(=O)O.O=C1O[C@H]([C@H](O)CO)C(O)=C1O` [Formulation 322], with “Solid”.
Then `CSCC[C@H](N)C(=O)O.O=CO` [Formulation 323], with “Solid”; and `CC(=O)O.CSCC[C@H](N)C(=O)O` [Formulation 324], with “Solid”.
Under `CCC(=O)O.CSCC[C@H](N)C(=O)O` [Formulation 325] stands “Solid”; under `CCCCCC(=O)O.CSCC[C@H](N)C(=O)O` [Formulation 326], “Solid”.
Consider `CCCC(=O)O.CSCC[C@H](N)C(=O)O` [Formulation 327], for which the “state at 25° C.” value was “Solid”.
Then `CSCC[C@H](N)C(=O)O.O=C(O)[C@H](O)[C@@H](O)[C@H](O)[C@H](O)CO` [Formulation 328], with “Solid”.
Then `CC(O)C(=O)O.CSCC[C@H](N)C(=O)O` [Formulation 329], with “Solid”; and `CSCC[C@H](N)C(=O)O.O=C(O)CCCCC(=O)O` [Formulation 330], with “Solid”; and `CSCC[C@H](N)C(=O)O.O=C(O)CCC(=O)O` [Formulation 331], with “Solid”.
Take `CSCC[C@H](N)C(=O)O.N[C@@H](CCC(=O)O)C(=O)O` [Formulation 332]: the “state at 25° C.” value is reported as “Solid”.
For the compound `CSCC[C@H](N)C(=O)O.O=C(O)/C=C/C(=O)O` [Formulation 333], the “state at 25° C.” value is on record as “Solid”.
Under `CSCC[C@H](N)C(=O)O.O=C(O)C[C@H](O)C(=O)O` [Formulation 334] stands “Solid”; under `CSCC[C@H](N)C(=O)O.O=C(O)CC(O)(CC(=O)O)C(=O)O` [Formulation 335], “Solid”; under `CSCC[C@H](N)C(=O)O.O=C(O)C(O)C(O)C(=O)O` (stereo not drawn) [Formulation 336], “Solid”.
In the case of `CSCC[C@H](N)C(=O)O.O=C(O)c1ccccc1` [Formulation 337], the “state at 25° C.” value was “Solid”.
Then `CSCC[C@H](N)C(=O)O.O=C1O[C@H]([C@@H](O)CO)C(O)=C1O` [Formulation 338], with “Solid”.
Under `CSCC[C@H](N)C(=O)O.O=C1O[C@H]([C@H](O)CO)C(O)=C1O` [Formulation 339] stands “Solid”; under `O=C(O)[C@@H]1CCCN1.O=CO` [Formulation 340], “Solid”.
Under `CCC(=O)O.O=C(O)[C@@H]1CCCN1` [Formulation 342] stands “Solid”.
With `CCCCCC(=O)O.O=C(O)[C@@H]1CCCN1` [Formulation 343], the “state at 25° C.” value is “Salid”.
In the case of `CCCC(=O)O.O=C(O)[C@@H]1CCCN1` [Formulation 344], the “state at 25° C.” value was “Solid”.
Then `O=C(O)CCCCC(=O)O.O=C(O)[C@@H]1CCCN1` [Formulation 350], with “Solid”; and `O=C(O)CCC(=O)O.O=C(O)[C@@H]1CCCN1` [Formulation 351], with “Solid”.
In the case of `N[C@@H](CCC(=O)O)C(=O)O.O=C(O)[C@@H]1CCCN1` [Formulation 352], the “state at 25° C.” value is on record as “Solid”.
Under `O=C(O)/C=C/C(=O)O.O=C(O)[C@@H]1CCCN1` [Formulation 353] stands “Solid”.
For the compound `O=C(O)C(O)C(O)C(=O)O.O=C(O)[C@@H]1CCCN1` (stereo not drawn) [Formulation 356], the “state at 25° C.” value was “Solid”.
Under `O=C(O)[C@@H]1CCCN1.O=C(O)c1ccccc1` [Formulation 357] stands “Solid”.
For the compound `N[C@@H](Cc1ccccc1)C(=O)O.O=CO` [Formulation 360], the “state at 25° C.” value is reported as “Solid”.
Then `CC(=O)O.N[C@@H](Cc1ccccc1)C(=O)O` [Formulation 361], with “Solid”.
Under `CCC(=O)O.N[C@@H](Cc1ccccc1)C(=O)O` [Formulation 362] stands “Solid”.
With `CCCCCC(=O)O.N[C@@H](Cc1ccccc1)C(=O)O` [Formulation 363], the “state at 25° C.” value is reported as “Solid”.
Under `CCCC(=O)O.N[C@@H](Cc1ccccc1)C(=O)O` [Formulation 364] stands “Solid”; under `N[C@@H](Cc1ccccc1)C(=O)O.O=C(O)[C@H](O)[C@@H](O)[C@H](O)[C@H](O)CO` [Formulation 365], “Solid”; under `CC(O)C(=O)O.N[C@@H](Cc1ccccc1)C(=O)O` [Formulation 366], “Solid”.
Under `N[C@@H](Cc1ccccc1)C(=O)O.O=C(O)CCCCC(=O)O` [Formulation 367] stands “Solid”.
Under `N[C@@H](Cc1ccccc1)C(=O)O.O=C(O)CCC(=O)O` [Formulation 368] stands “Solid”.
Take `N[C@@H](CCC(=O)O)C(=O)O.N[C@@H](Cc1ccccc1)C(=O)O` [Formulation 369]: the “state at 25° C.” value is reported as “Solid”.
Under `N[C@@H](Cc1ccccc1)C(=O)O.O=C(O)/C=C/C(=O)O` [Formulation 370] stands “Solid”; under `N[C@@H](Cc1ccccc1)C(=O)O.O=C(O)C[C@H](O)C(=O)O` [Formulation 371], “Salid”.
Under `N[C@@H](Cc1ccccc1)C(=O)O.O=C(O)CC(O)(CC(=O)O)C(=O)O` [Formulation 372] stands “Solid”; under `N[C@@H](Cc1ccccc1)C(=O)O.O=C(O)C(O)C(O)C(=O)O` [Formulation 373], “Solid”; under `N[C@@H](Cc1ccccc1)C(=O)O.O=C(O)c1ccccc1` [Formulation 374], “Solid”.
Turning to `N[C@@H](Cc1ccccc1)C(=O)O.O=C1O[C@H]([C@H](O)CO)C(O)=C1O` [Formulation 375], the “state at 25° C.” value is listed as “Solid”.
Under `N[C@@H](Cc1c[nH]c2ccccc12)C(=O)O.O=CO` [Formulation 377] stands “Solid”.
Take `CC(=O)O.N[C@@H](Cc1c[nH]c2ccccc12)C(=O)O` [Formulation 378]: the “state at 25° C.” value is on record as “Solid”.
Under `CCC(=O)O.N[C@@H](Cc1c[nH]c2ccccc12)C(=O)O` [Formulation 379] stands “Solid”; under `CCCCCC(=O)O.N[C@@H](Cc1c[nH]c2ccccc12)C(=O)O` [Formulation 380], “Solid”.
Under `CCCC(=O)O.N[C@@H](Cc1c[nH]c2ccccc12)C(=O)O` [Formulation 381] stands “Solid”.
Regarding `N[C@@H](Cc1c[nH]c2ccccc12)C(=O)O.O=C(O)[C@H](O)[C@@H](O)[C@H](O)[C@H](O)CO` [Formulation 382], the “state at 25° C.” value was “Solid”.
As to `CC(O)C(=O)O.N[C@@H](Cc1c[nH]c2ccccc12)C(=O)O` [Formulation 383], the “state at 25° C.” value was “Solid”.
Then `N[C@@H](Cc1c[nH]c2ccccc12)C(=O)O.O=C(O)CCCCC(=O)O` [Formulation 384], with “Solid”.
For the compound `N[C@@H](Cc1c[nH]c2ccccc12)C(=O)O.O=C(O)CCC(=O)O` [Formulation 385], the “state at 25° C.” value is reported as “Solid”.
Then `N[C@@H](CCC(=O)O)C(=O)O.N[C@@H](Cc1c[nH]c2ccccc12)C(=O)O` [Formulation 386], with “Solid”; and `N[C@@H](Cc1c[nH]c2ccccc12)C(=O)O.O=C(O)/C=C/C(=O)O` [Formulation 387], with “Solid”.
Under `N[C@@H](Cc1c[nH]c2ccccc12)C(=O)O.O=C(O)C[C@H](O)C(=O)O` [Formulation 388] stands “Solid”.
Under `N[C@@H](Cc1c[nH]c2ccccc12)C(=O)O.O=C(O)CC(O)(CC(=O)O)C(=O)O` [Formulation 389] stands “Solid”; under `N[C@@H](Cc1c[nH]c2ccccc12)C(=O)O.O=C(O)C(O)C(O)C(=O)O` [Formulation 390], “Solid”; under `N[C@@H](Cc1c[nH]c2ccccc12)C(=O)O.O=C(O)c1ccccc1` [Formulation 391], “Solid”.
In the case of `N[C@@H](Cc1c[nH]c2ccccc12)C(=O)O.O=C1O[C@H]([C@@H](O)CO)C(O)=C1O` [Formulation 392], the “state at 25° C.” value was “Solid”.
Under `N[C@@H](Cc1c[nH]c2ccccc12)C(=O)O.O=C1O[C@H]([C@H](O)CO)C(O)=C1O` [Formulation 393] stands “Solid”; under `N[C@@H](CC(=O)O)C(=O)O.O=CO` [Formulation 394], “Solid”; under `CC(=O)O.N[C@@H](CC(=O)O)C(=O)O` [Formulation 395], “Solid”.
For the compound `CCC(=O)O.N[C@@H](CC(=O)O)C(=O)O` [Formulation 396], the “state at 25° C.” value was “Solid”.
Then `CCCCCC(=O)O.N[C@@H](CC(=O)O)C(=O)O` [Formulation 397], with “Solid”.
Under `CCCC(=O)O.N[C@@H](CC(=O)O)C(=O)O` [Formulation 398] stands “Solid”.
Under `N[C@@H](CC(=O)O)C(=O)O.O=C(O)[C@H](O)[C@@H](O)[C@H](O)[C@H](O)CO` [Formulation 399] stands “Solid”; under `CC(O)C(=O)O.N[C@@H](CC(=O)O)C(=O)O` [Formulation 400], “Solid”; under `N[C@@H](CC(=O)O)C(=O)O.O=C(O)CCCCC(=O)O` [Formulation 401], “Solid”.
